Laboratory results reported in US10280164B2, “Pyrazolopyridone compounds and uses thereof” (Incyte Corporation, priority 2016, dated 2019).

What follows are compounds tested against HPK1 (Homo sapiens (Human), UniProt Q92918) (assay: HPK1 Kinase Binding Assay (LanthaScreen Eu-Anti GST antibody / tracer 222)). Conditions: active HPK1 (SignalChem M23-11G), tracer 222, one hour incubation at 25° C.
Description: A stock solution of 1 mM test compound was prepared in DMSO. The compound plate was prepared by 3-fold and 11-point serial dilutions. 0.1 μL of the compound in DMSO was transferred from the compound plate to the white 384 well polystyrene plates. The assay buffer contained 50 mM HEPES, pH 7.5, 0.01% Tween-20, 5 mM MgCl2, 0.01% BSA, and 5 mM DTT. 5 μl of 4 nM active HPK1 (SignalChem M23-11G) prepared in the buffer was added to the plate. The enzyme concentration given was based on the given stock concentration reported by the vender. 5 μl of 18 nM tracer 222 (ThermoFisher PV6121) and 4 nM LanthaScreen Eu-Anti GST antibody (ThermoFisher PV5595) were added. After one hour incubation at 25° C., the plates were read on a PHERAstar FS plate reader (BMG Labtech). Ki values were determined.

Sequence of HPK1 (Q92918 1-346): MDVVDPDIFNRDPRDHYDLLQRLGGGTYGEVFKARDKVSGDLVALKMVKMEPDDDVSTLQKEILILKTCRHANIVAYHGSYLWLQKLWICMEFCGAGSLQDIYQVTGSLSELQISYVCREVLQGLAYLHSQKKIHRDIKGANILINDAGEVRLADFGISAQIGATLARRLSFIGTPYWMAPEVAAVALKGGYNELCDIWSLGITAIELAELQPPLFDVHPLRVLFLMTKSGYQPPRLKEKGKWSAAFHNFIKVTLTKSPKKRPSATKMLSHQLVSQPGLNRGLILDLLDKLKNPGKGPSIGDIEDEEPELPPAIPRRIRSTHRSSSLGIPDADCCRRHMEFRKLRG

Structure (SMILES)	Ki [nM]
CN1CCN(c2ccc(-c3n[nH]c4cc(=O)n(-c5ncccc5F)cc34)cc2)CC1 [Example 8, 5-(3-Fluoropyridin-2-yl)-3-[4-(4-methylpiperazin-1-yl)phenyl]-1,5-dihydro-6H-pyrazolo[4,3-c]pyridin-6-one]	≤ 100
CC1OCCCC1n1cc2c(-c3ccc(N4CCN(C)CC4)cc3)n[nH]c2cc1=O (stereo not shown) [Example 16, 3-[4-(4-Methylpiperazin-1-yl)phenyl]-5-(2-methyltetrahydro-2H-pyran-3-yl)-1,5-dihydro-6H-pyrazolo[4,3-c]pyridin-6-one]	100 to 500
CN1CCN(c2ccc(-c3n[nH]c4cc(=O)n(C5CCN(C)C5=O)cc34)cc2)CC1 (stereo not shown) [Example 15, 5-(1-Methyl-2-oxopyrrolidin-3-yl)-3-[4-(4-methylpiperazin-1-yl)phenyl]-1,5-dihydro-6H-pyrazolo[4,3-c]pyridin-6-one]	500 to 3000
CN1CCN(c2ccc(-c3n[nH]c4cc(=O)n(-c5cccc6c5OCCO6)cc34)cc2)CC1 [Example 7, 5-(2,3-Dihydrobenzo[b][1,4]dioxin-5-yl)-3-[4-(4-methylpiperazin-1-yl)phenyl]-1,5-dihydro-6H-pyrazolo[4,3-c]pyridin-6-one]	≤ 100
CN1CCN(c2ccc(-c3n[nH]c4cc(=O)n(CC5CCCCC5)cc34)cc2)CC1 [Example 12, 5-(Cyclohexylmethyl)-3-[4-(4-methylpiperazin-1-yl)phenyl]-1,5-dihydro-6H-pyrazolo[4,3-c]pyridin-6-one]	100 to 500
CN1CCN(c2ccc(-c3n[nH]c4cc(=O)n(-c5ccccc5F)cc34)cc2)CC1 [Example 2, 5-(2-Fluorophenyl)-3-[4-(4-methylpiperazin-1-yl)phenyl]-1,5-dihydro-6H-pyrazolo[4,3-c]pyridin-6-one]	≤ 100
COc1ccccc1-n1cc2c(-c3ccc(N4CCN(C)CC4)cc3)n[nH]c2cc1=O [Example 4, 5-(2-Methoxyphenyl)-3-[4-(4-methylpiperazin-1-yl)phenyl]-1,5-dihydro-6H-pyrazolo[4,3-c]pyridin-6-one]	≤ 100
Cc1ccccc1-n1cc2c(-c3ccc(N4CCN(C)CC4)cc3)n[nH]c2cc1=O [Example 3, 3-[4-(4-Methylpiperazin-1-yl)phenyl]-5-(o-tolyl)-1,5-dihydro-6H-pyrazolo[4,3-c]pyridin-6-one]	≤ 100
CC(c1ccccc1)n1cc2c(-c3ccc(N4CCN(C)CC4)cc3)n[nH]c2cc1=O (stereo not shown) [Example 14, 3-[4-(4-Methylpiperazin-1-yl)phenyl]-5-(1-phenylethyl)-1,5-dihydro-6H-pyrazolo[4,3-c]pyridin-6-one]	≤ 100
COc1cccc(F)c1-n1cc2c(-c3ccc(N4CCN(C)CC4)cc3)n[nH]c2cc1=O [Example 5, 5-(2-Fluoro-6-methoxyphenyl)-3-[4-(4-methylpiperazin-1-yl)phenyl]-1,5-dihydro-6H-pyrazolo[4,3-c]pyridin-6-one]	≤ 100
CN1CCN(c2ccc(-c3n[nH]c4cc(=O)n(C5CCCCC5)cc34)cc2)CC1 [Example 9, 5-Cyclohexyl-3-[4-(4-methylpiperazin-1-yl)phenyl]-1,5-dihydro-6H-pyrazolo[4,3-c]pyridin-6-one]	100 to 500
CN1CCN(c2ccc(-c3n[nH]c4cc(=O)n(C5CCOC5)cc34)cc2)CC1 (stereo not shown) [Example 10, 3-[4-(4-Methylpiperazin-1-yl)phenyl]-5-(tetrahydrofuran-3-yl)-1,5-dihydro-6H-pyrazolo[4,3-c]pyridin-6-one]	500 to 3000
CN1CCN(c2ccc(-c3n[nH]c4cc(=O)n(Cc5ccccc5)cc34)cc2)CC1 [Example 11, 5-Benzyl-3-[4-(4-methylpiperazin-1-yl)phenyl]-1,5-dihydro-6H-pyrazolo[4,3-c]pyridin-6-one]	100 to 500
CN1CCN(c2ccc(-c3n[nH]c4cc(=O)n(-c5ccccc5)cc34)cc2)CC1 [Example 1, 3-[4-(4-Methylpiperazin-1-yl)phenyl]-5-phenyl-1,5-dihydro-6H-pyrazolo[4,3-c]pyridin-6-one]	100 to 500
CC(c1ccccc1C(F)(F)F)n1cc2c(-c3ccc(N4CCN(C)CC4)cc3)n[nH]c2cc1=O (stereo not shown) [Example 13, 3-[4-(4-Methylpiperazin-1-yl)phenyl]-5-{1-[2-(trifluoromethyl)phenyl]ethyl}-1,5-dihydro-6H-pyrazolo[4,3-c]pyridin-6-one]	≤ 100
CN1CCN(c2ccc(-c3n[nH]c4cc(=O)n(-c5cccc6c5CCNC6)cc34)cc2)CC1 [Example 6, 3-[4-(4-Methylpiperazin-1-yl)phenyl]-5-(1,2,3,4-tetrahydroisoquinolin-5-yl)-1,5-dihydro-6H-pyrazolo[4,3-c]pyridin-6-one]	≤ 100
